In US20260116868A1 (Arcus Biosciences, Inc., priority 2023, published 2026):
Like-named read-outs stand apart in the source and are kept apart here.

Assays:
Jurkat cells = assay: IL-2 secretion assay in Jurkat cells activated with CD3/CD28 T Cell Activator; type: cell-based; settings: Homo sapiens, 24 h, read-out: IL-2 Secretion (EC50)
Method in brief: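 Jurkat cells in Opti-MEM were preincubated 1 h at 37° C with compound (final 10 μM to 300 pM, 16-point 1:2 dilution), then activated with human CD3/CD28 T Cell Activator for 24 h at 37° C. Supernatant IL-2 measured by AlphaLISA; EC50 from 4-parameter logistic fit.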

Cbl-b = target: T1, Cbl-b (Homo sapiens, UniProt Q13191); assay: Cbl-b probe displacement HTRF binding assay; settings: 0.4 nM Cbl-b, 150 nM BODIPY probe
T1 construct: biotin (biotinylated protein)
T1 sequence (Q13191 whole entry, species assumed): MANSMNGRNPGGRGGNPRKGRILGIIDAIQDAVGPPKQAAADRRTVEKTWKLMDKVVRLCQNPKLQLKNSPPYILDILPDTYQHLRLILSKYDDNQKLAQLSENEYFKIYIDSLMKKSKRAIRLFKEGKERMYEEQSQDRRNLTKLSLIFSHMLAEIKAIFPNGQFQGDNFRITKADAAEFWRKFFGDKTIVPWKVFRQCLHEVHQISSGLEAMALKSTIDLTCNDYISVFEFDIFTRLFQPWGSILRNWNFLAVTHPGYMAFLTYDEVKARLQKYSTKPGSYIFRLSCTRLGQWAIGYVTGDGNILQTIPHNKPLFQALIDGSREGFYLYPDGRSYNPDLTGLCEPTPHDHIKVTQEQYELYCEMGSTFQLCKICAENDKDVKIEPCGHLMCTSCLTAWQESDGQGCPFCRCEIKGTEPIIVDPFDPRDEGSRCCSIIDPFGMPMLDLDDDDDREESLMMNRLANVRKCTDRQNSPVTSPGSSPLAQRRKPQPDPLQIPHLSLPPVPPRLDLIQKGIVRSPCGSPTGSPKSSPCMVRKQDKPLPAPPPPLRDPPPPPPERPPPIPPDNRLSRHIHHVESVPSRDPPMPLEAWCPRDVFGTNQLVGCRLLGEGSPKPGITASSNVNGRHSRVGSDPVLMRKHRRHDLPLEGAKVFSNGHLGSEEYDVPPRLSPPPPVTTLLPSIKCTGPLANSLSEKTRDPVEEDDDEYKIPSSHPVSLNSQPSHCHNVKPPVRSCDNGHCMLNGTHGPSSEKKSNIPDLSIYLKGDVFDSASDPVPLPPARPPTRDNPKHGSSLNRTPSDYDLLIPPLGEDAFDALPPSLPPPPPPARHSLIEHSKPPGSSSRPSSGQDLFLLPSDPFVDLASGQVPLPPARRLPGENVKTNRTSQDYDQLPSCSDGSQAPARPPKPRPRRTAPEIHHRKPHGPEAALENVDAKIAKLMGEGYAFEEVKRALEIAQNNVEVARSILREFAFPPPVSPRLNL
Method in brief: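 Binding IC50 from four-parameter fit of HTRF signal loss, normalised to DMSO (0%) and no-protein (100%) wells. Biotinylated Cbl-b 0.4 nM was preincubated 60 min with compound (20-point 1:2 dilution) before 15 min with 150 nM BODIPY probe; Tb-streptavidin detection.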

[1] = Jurkat cells, CD3/CD28 T Cell Activator, IL-2 AlphaLISA

| Compound | EC50 (Jurkat cells; [1]) [nM] | IC50 (Cbl-b) [nM] | EC50 (Jurkat cells; Jurkat) [nM] |
| --- | --- | --- | --- |
| C[C@H]1CCCN(Cc2cc(C(=O)Nc3cc(-c4ccc(C#N)cc4-c4nc(C(F)(F)F)cn4C)cc(C4CC4)n3)c(=O)n(C3CC3)c2)C1 [Example 47, N-(4-{4-cyano-2-[1-methyl-4-(trifluoromethyl)-2-imidazolyl]phenyl}-6-cyclopropyl-2-pyridyl)-5-{[(S)-3-methyl-1-piperidyl]methyl}-1-cyclopropyl-2-oxo-1,2-dihydronicotinamide] | 1000 to 5000 | 100 to 1000 |  |
| COCCNCc1cc(C(=O)Nc2cc(-c3ccc(C#N)cc3-c3ocnc3C)cc(C3CC3)n2)c(=O)n(C2CC2)c1 [Example 52, N-{4-[4-cyano-2-(4-methyl-1,3-oxazol-5-yl)phenyl]-6-cyclopropyl-2-pyridyl}-1-cyclopropyl-5-[(2-methoxyethylamino)methyl]-2-oxo-1,2-dihydronicotinamide] | > 5000 | 1000 to 5000 |  |
| COCCNCc1cc(C(=O)Nc2cc(-c3ccc(C#N)cc3-c3[nH]c(C)nc3C)cc(C3CC3)n2)c(=O)n(C2CC2)c1 [Example 54, N-{4-[4-cyano-2-(2,4-dimethyl-5-imidazolyl)phenyl]-6-cyclopropyl-2-pyridyl}-1-cyclopropyl-5-[(2-methoxyethylamino)methyl]-2-oxo-1,2-dihydronicotinamide] |  | < 100 | 100 to 1000 |
| COCCNCc1cc(C(=O)Nc2cc(-c3ccc(C#N)cc3-c3nc(C#N)cn3C)cc(C3CC3)n2)c(=O)n(CC2CC2)c1 [Example 63, N-{4-[4-cyano-2-(4-cyano-1-methyl-2-imidazolyl)phenyl]-6-cyclopropyl-2-pyridyl}-1-(cyclopropylmethyl)-5-[(2-methoxyethylamino)methyl]-2-oxo-1,2-dihydronicotinamide] | 100 to 1000 | < 100 |  |
| COCCNCc1cc(C(=O)Nc2cc(-c3ccc(C#N)cc3-c3ncoc3C)cc(C3CC3)n2)c(=O)n(CC2CC2)c1 [Example 64, N-{4-[4-cyano-2-(5-methyl-1,3-oxazol-4-yl)phenyl]-6-cyclopropyl-2-pyridyl}-1-(cyclopropylmethyl)-5-[(2-methoxyethylamino)methyl]-2-oxo-1,2-dihydronicotinamide] | 100 to 1000 | < 100 |  |
| C[C@H]1CCCN(Cc2cc(C(=O)Nc3cc(-c4ccc(F)cc4C(=O)N4CC(F)C4)cc(C4CC4)n3)c(=O)n(C3CC3)c2)C1 [Example 65, N-(6-cyclopropyl-4-{4-fluoro-2-[(3-fluoro-1-azetidinyl)carbonyl]phenyl}-2-pyridyl)-5-{[(S)-3-methyl-1-piperidyl]methyl}-1-cyclopropyl-2-oxo-1,2-dihydronicotinamide] | 100 to 1000 | < 100 |  |
| C[C@H]1CCCN(Cc2cc(C(=O)Nc3cc(C#N)cc(-c4ccc(F)cc4C(=O)N4CC(F)C4)c3)c(=O)n(C3CC3)c2)C1 [Example 66, N-{5-cyano-4′-fluoro-2′-[(3-fluoro-1-azetidinyl)carbonyl]-3-biphenylyl}-5-{[(S)-3-methyl-1-piperidyl]methyl}-1-cyclopropyl-2-oxo-1,2-dihydronicotinamide] | 1000 to 5000 | 100 to 1000 |  |
| COCCNCc1cc(C(=O)Nc2cc(-c3ccc(F)cc3C(=O)N3CC(F)(F)C3)cc(C3CC3)c2)c(=O)n(C2CC2)c1 [Example 69, N-{5-cyclopropyl-2′-[(3,3-difluoro-1-azetidinyl)carbonyl]-4′-fluoro-3-biphenylyl}-1-cyclopropyl-5-[(2-methoxyethylamino)methyl]-2-oxo-1,2-dihydronicotinamide] | 100 to 1000 | < 100 |  |
| COCCNCc1cc(C(=O)Nc2cc(-c3ccc(F)cc3-n3nccc3C)cc(C3CC3)n2)c(=O)n(C2CC2)c1 [Example 70, 1-Cyclopropyl-N-[6-cyclopropyl-4-[4-fluoro-2-(5-methylpyrazol-1-yl)phenyl]pyridin-2-yl]-5-[(2-methoxyethylamino)methyl]-2-oxopyridine-3-carboxamide] | 100 to 1000 | < 100 |  |
| COCCNCc1cc(C(=O)Nc2cc(-c3ccc(F)cc3-n3nncc3CF)cc(C3CC3)n2)c(=O)n(C2CC2)c1 [Example 72, 1-Cyclopropyl-N-[6-cyclopropyl-4-[4-fluoro-2-[5-(fluoromethyl)triazol-1-yl]phenyl]pyridin-2-yl]-5-[(2-methoxyethylamino)methyl]-2-oxopyridine-3-carboxamide] | 100 to 1000 | < 100 |  |

Continued, in another order:

| EC50 (Jurkat cells; [1]) [nM] | IC50 (Cbl-b) [nM] | Compound | EC50 (Jurkat cells; Jurkat) [nM] |
| --- | --- | --- | --- |
| < 100 | < 100 | COCCNCc1cc(C(=O)Nc2cc(-c3ccc(C#N)cc3-c3nc(C#N)cn3C)cc(C3CC3)n2)c(=O)n(C2CC2)c1 [Example 48, N-{4-[4-cyano-2-(4-cyano-1-methyl-2-imidazolyl)phenyl]-6-cyclopropyl-2-pyridyl}-1-cyclopropyl-5-[(2-methoxyethylamino)methyl]-2-oxo-1,2-dihydronicotinamide] |  |
| < 100 | < 100 | Cn1cc(C#N)nc1-c1cc(C#N)ccc1-c1cc(NC(=O)c2cc(CNC3(C)CCC3)cn(C3CC3)c2=O)nc(C2CC2)c1 [Example 49, N-{4-[4-cyano-2-(4-cyano-1-methyl-2-imidazolyl)phenyl]-6-cyclopropyl-2-pyridyl}-1-cyclopropyl-5-[(1-methylcyclobutylamino)methyl]-2-oxo-1,2-dihydronicotinamide] |  |
| 100 to 1000 | < 100 | Cc1ocnc1-c1cc(C#N)ccc1-c1cc(NC(=O)c2cc(CNC3(C)CCC3)cn(C3CC3)c2=O)nc(C2CC2)c1 [Example 53, N-{4-[4-cyano-2-(5-methyl-1,3-oxazol-4-yl)phenyl]-6-cyclopropyl-2-pyridyl}-1-cyclopropyl-5-[(1-methylcyclobutylamino)methyl]-2-oxo-1,2-dihydronicotinamide] |  |
| < 100 | < 100 | Cn1cnnc1-c1cc(F)ccc1-c1cc(NC(=O)c2cc(CNC3(C)CCC3)cn(CC3CC3)c2=O)nc(C2CC2)c1 [Example 55] |  |
| < 100 | < 100 | C[C@H]1CCCN(Cc2cc(C(=O)Nc3cc(-c4ccc(F)cc4-c4nncn4C)cc(C4CC4)n3)c(=O)n(CC3CC3)c2)C1 [Example 56, N-[6-cyclopropyl-4-[4-fluoro-2-(4-methyl-1,2,4-triazol-3-yl)phenyl]pyridin-2-yl]-1-(cyclopropylmethyl)-5-[[(3S)-3-methylpiperidin-1-yl]methyl]-2-oxopyridine-3-carboxamide] |  |
| < 100 | < 100 | CC(C)n1cc(CN2CCC[C@H](C)C2)cc(C(=O)Nc2cc(-c3ccc(F)cc3-c3nncn3C)cc(C3CC3)n2)c1=O [Example 57, N-[6-cyclopropyl-4-[4-fluoro-2-(4-methyl-1,2,4-triazol-3-yl)phenyl]pyridin-2-yl]-5-[[(3S)-3-methylpiperidin-1-yl]methyl]-2-oxo-1-propan-2-ylpyridine-3-carboxamide] |  |
| < 100 | < 100 | C[C@H]1CCCN(Cc2cc(C(=O)Nc3cc(-c4ccc(F)cc4-c4nncn4C)cc(C4CC4)n3)c(=O)n(CC(F)(F)F)c2)C1 [Example 58, N-[6-cyclopropyl-4-[4-fluoro-2-(4-methyl-1,2,4-triazol-3-yl)phenyl]pyridin-2-yl]-5-[[(3S)-3-methylpiperidin-1-yl]methyl]-2-oxo-1-(2,2,2-trifluoroethyl)pyridine-3-carboxamide] |  |
| < 100 | < 100 | C[C@H]1CCCN(Cc2cc(C(=O)Nc3cc(-c4ccc(F)cc4-c4nncn4C)cc(C4CC4)n3)c(=O)n(CCO)c2)C1 [Example 59, N-[6-cyclopropyl-4-[4-fluoro-2-(4-methyl-1,2,4-triazol-3-yl)phenyl]pyridin-2-yl]-1-(2-hydroxyethyl)-5-[[(3S)-3-methylpiperidin-1-yl]methyl]-2-oxopyridine-3-carboxamide] |  |
| 100 to 1000 | < 100 | C[C@H]1CCCN(Cc2cc(C(=O)Nc3cc(-c4ccc(F)cc4-c4nncn4C)cc(C4CC4)n3)c(=O)n(CC3CCOCC3)c2)C1 [Example 60, N-[6-cyclopropyl-4-[4-fluoro-2-(4-methyl-1,2,4-triazol-3-yl)phenyl]pyridin-2-yl]-5-[[(3S)-3-methylpiperidin-1-yl]methyl]-1-(oxan-4-ylmethyl)-2-oxopyridine-3-carboxamide] |  |
| < 100 | < 100 | CC(C)Cn1cc(CN2CCC[C@H](C)C2)cc(C(=O)Nc2cc(-c3ccc(F)cc3-c3nncn3C)cc(C3CC3)n2)c1=O [Example 61, N-[6-cyclopropyl-4-[4-fluoro-2-(4-methyl-1,2,4-triazol-3-yl)phenyl]pyridin-2-yl]-5-[[(3S)-3-methylpiperidin-1-yl]methyl]-1-(2-methylpropyl)-2-oxopyridine-3-carboxamide] |  |
| < 100 | < 100 | C[C@H]1CCCN(Cc2cc(C(=O)Nc3cc(-c4ccc(F)cc4-c4nncn4C)cc(C4CC4)n3)c(=O)n(CC3CCC3)c2)C1 [Example 62, 1-(cyclobutylmethyl)-N-[6-cyclopropyl-4-[4-fluoro-2-(4-methyl-1,2,4-triazol-3-yl)phenyl]pyridin-2-yl]-5-[[(3S)-3-methylpiperidin-1-yl]methyl]-2-oxopyridine-3-carboxamide] |  |
| < 100 | < 100 | COCCNCc1cc(C(=O)Nc2cc(-c3ccc(F)cc3-n3nncc3C)cc(C3CC3)n2)c(=O)n(C2CC2)c1 [Example 71, N-{6-cyclopropyl-4-[4-fluoro-2-(5-methyl-1H-1,2,3-triazol-1-yl)phenyl]-2-pyridyl}-1-cyclopropyl-5-[(2-methoxyethylamino)methyl]-2-oxo-1,2-dihydronicotinamide] |  |
